The values that follow come from US7741354B2, “Inhibitors of glutaminyl cyclase” (Probiodrug AG, priority 2006, dated 2010).

pIC50: −log10 of the molar value.

Chain of hQC (Q16769 29-361): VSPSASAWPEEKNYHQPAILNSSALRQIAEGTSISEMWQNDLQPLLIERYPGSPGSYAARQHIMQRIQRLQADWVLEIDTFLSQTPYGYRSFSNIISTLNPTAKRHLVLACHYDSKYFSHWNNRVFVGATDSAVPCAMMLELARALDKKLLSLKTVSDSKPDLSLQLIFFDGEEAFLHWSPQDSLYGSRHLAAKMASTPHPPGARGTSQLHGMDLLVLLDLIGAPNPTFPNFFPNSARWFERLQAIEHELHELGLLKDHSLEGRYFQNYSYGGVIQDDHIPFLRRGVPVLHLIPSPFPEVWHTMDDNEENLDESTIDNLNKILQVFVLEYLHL

The first assay addresses hQC (Homo sapiens, UniProt Q16769). Briefly: Fluorometric (fluorescent) assay of hQC inhibition, IC50. The class given is biochemical. As to conditions: hQC inhibition; read-out: IC50. In outline: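 QC activity followed at 30° C via pyroglutamyl aminopeptidase-coupled release of fluorophore, using either H-Gln-βNA (0.2 mM; ex/em 320/410 nm; 0.2 M Tris/HCl pH 8.0, 20 mM EDTA) or H-Gln-AMC (ex/em 380/460 nm; 0.05 M Tris/HCl pH 8.0, 5 mM EDTA).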
As a reminder, the pIC50 is the IC50 on a negative log10 scale, so that one unit is a factor of ten. Take `Brc1ccc(C(Nc2ccc3[nH]cnc3c2)c2nnnn2-c2ccccc2OCc2ccccc2)cc1` (stereo not drawn) [compound 203, (1H-Benzoimidazol-5-yl)-[[1-(2-benzyloxy-phenyl)-1H-tetrazol-5-yl]-(4-bromo-phenyl)-methyl]-amine]: the pIC50 was 5.66.
With `Fc1cc(C(Nc2ccc3[nH]cnc3c2)c2nnnn2CCc2cccs2)ccc1Cl` (stereo not drawn) [compound 207, (1H-Benzoimidazol-5-yl)-{(4-chloro-3-fluoro-phenyl)-[1-(2-thiophen-2-yl-ethyl)-1H-tetrazol-5-yl]-methyl}-amine], the pIC50 was 5.40.
Regarding `O=c1c(C(Nc2ccc3[nH]cnc3c2)c2nnnn2CCc2cccs2)coc2ccccc12` (stereo not drawn) [compound 122, 3-{(1H-Benzoimidazol-5-ylamino)-[1-(2-thiophen-2-yl-ethyl)-1H-tetrazol-5-yl]-methyl}-chromen-4-one], the pIC50 was 5.31.
Same read-out and setting: the result for `CCOC(=O)C1CCCCC1n1nnnc1C(Nc1ccc2[nH]cnc2c1)c1ccc(OC)cc1` (stereo not drawn) [compound 184] reads 5.24; that for `CCOC(=O)C1CCCCC1n1nnnc1C(Nc1ccc2[nH]cnc2c1)c1ccc(OC)c(F)c1` (stereo not drawn) [compound 132, 2-{5-[(1H-Benzoimidazol-5-ylamino)-(3-fluoro-4-methoxy-phenyl)-methyl]-tetrazol-1-yl}-cyclohexanecar-boxylic acid ethyl ester], 5.07; that for `Brc1ccc(C(Nc2ccc3[nH]cnc3c2)c2nnnn2Cc2cccnc2)cc1` (stereo not drawn) [compound 201, (1H-Benzoimidazol-5-yl)-[(4-bromo-phenyl)-(1-pyridin-3-ylmethyl-1H-tetrazol-5-yl)-methyl]-amine], 5.40.
The same measure, in the same setting: the result for `COc1ccc(C(Nc2ccc3[nH]cnc3c2)c2nnnn2CC(=O)OC(C)(C)C)cc1` (stereo not drawn) [compound 172, {5-[(1H-Benzoimidazol-5-ylamino)-(4-methoxy-phenyl)-methyl]-tetrazol-1-yl}-acetic acid tert-butyl ester] reads 5.40; that for `Oc1ccc(C(Nc2ccc3[nH]cnc3c2)c2nnnn2Cc2ccc(Cl)cc2)cc1` (stereo not drawn) [compound 191, 4-{(1H-Benzoimidazol-5-ylamino)-[1-(4-chloro-benzyl)-1H-tetrazol-5-yl]-methyl}-phenol], 5.51; that for `Oc1ccc(Cl)cc1C(Nc1ccc2[nH]cnc2c1)c1nnnn1C1CCCCC1` (stereo not drawn) [compound 193, 2-[(1H-Benzoimidazol-5-ylamino)-(1-cyclohexyl-1H-tetrazol-5-yl)-methyl]-4-chloro-phenol], 5.24.
On the same count and under the same terms, for `CCCOc1cccc(C(Nc2ccc3[nH]cnc3c2)c2nnnn2C2CCCCC2C(=O)OCC)c1` (stereo not drawn) [compound 208] the value was 5.66; for `COc1ccccc1C(Nc1ccc2[nH]cnc2c1)c1nnnn1Cc1ccccc1Cl` (stereo not drawn) [compound 153], 5.51; for `C/C=C/C=C/C(Nc1ccc2[nH]cnc2c1)c1nnnn1CC1CCCO1` (stereo not drawn) [compound 174, (1H-Benzoimidazol-5-yl)-{(2E,4E)-1-[1-(tetrahydro-furan-2-ylmethyl)-1H-tetrazol-5-yl]-hexa-2,4-dienyl}-amine], 5.07.

The assay is the same for the next values; noted with them: purified compound from preparative synthesis; fluorescent assay; read-out: IC50 hQC.
On to `Cc1ccc(O)c(C(NCCCn2ccnc2)c2nnnn2CC(C)(C)C)c1` (stereo not drawn) [Compound 63, 2-[[1-(2,2-Dimethyl-propyl)-1H-tetrazol-5-yl]-(3-imidazol-1-yl-propylamino)-methyl]-4-methyl-phenol], for which the pIC50 was 5.63.

The same assay, now with this note: read-out: IC50.
Consider `CC(C)(C)Cn1nnnc1C(NCCCn1ccnc1)[C@@H]1CCC=CO1` (stereo partly drawn) [compound 67], for which the negative-log IC50 (pIC50) was 5.17.
For the compound `CCCCn1nnnc1C(NCCCn1ccnc1)c1ccc2ccccc2n1` (stereo not drawn) [compound 22, [(1-Butyl-1H-tetrazol-5-yl)-quinolin-2-yl-methyl]-(3-imidazol-1-yl-propyl)-amine], the pIC50 was 5.51.
Same read-out and setting: the result for `COc1cc(C)c(C(Nc2ccc3[nH]cnc3c2)c2nnnn2C(C)(C)C)cc1C` (stereo not drawn) [compound 99] reads 5.07.
The same measure, in the same setting: the result for `CCCCn1nnnc1C(NCCCn1ccnc1)c1ccc2[nH]ccc2c1` (stereo not drawn) [compound 21, [(1-Butyl-1H-tetrazol-5-yl)-(1H-indol-5-yl)-methyl]-(3-imidazol-1-yl-propyl)-amine] reads 5.17; that for `C/C=C/C=C/C(Nc1ccc2[nH]cnc2c1)c1nnnn1CC1COC(C)(C)O1` (stereo not drawn) [compound 92, (1H-Benzoimidazol-5-yl)-{(2E,4E)-1-[1-(2,2-dimethyl-[1,3]dioxolan-4-ylmethyl)-1H-tetrazol-5-yl]-hexa-2,4-dienyl}-amine], 5.31; that for `c1ccc(CC(Nc2ccc3[nH]cnc3c2)c2nnnn2Cc2cccnc2)cc1` (stereo not drawn) [compound 73, (1H-Benzoimidazol-5-yl)-[2-phenyl-1-(1-pyridin-3-ylmethyl-1H-tetrazol-5-yl)-ethyl]-amine], 5.24.
Still for that read-out and setting: the result for `CC(C)(C)n1nnnc1C(NCCCn1ccnc1)c1ccc2cccc(O)c2n1` (stereo not drawn) [compound 60, 2-[(1-tert-Butyl-1H-tetrazol-5-yl)-(3-imidazol-1-yl-propylamino)-methyl]-quinolin-8-ol] reads 6.40; that for `COc1ccc(C(Nc2ccc3[nH]cnc3c2)c2nnnn2Cc2ccccc2Cl)c(C)c1` (stereo not drawn) [compound 77, (1H-Benzoimidazol-5-yl)-[[1-(2-chloro-benzyl)-1H-tetrazol-5-yl]-(4-methoxy-2-methyl-phenyl)-methyl]-amine], 5.89.
With `Cc1ccc(O)c(C(NCCCn2ccnc2)c2nnnn2CC(C)(C)C)c1` (stereo not drawn) [Compound 63, 2-[[1-(2,2-Dimethyl-propyl)-1H-tetrazol-5-yl]-(3-imidazol-1-yl-propylamino)-methyl]-4-methyl-phenol], the pIC50 was 7.40.
Same read-out and setting: for `Cn1nnnc1C(NCCCn1ccnc1)c1ccc2ccccc2n1` (stereo not drawn) [compound 31, (3-Imidazol-1-yl-propyl)-[(1-methyl-1H-tetrazol-5-yl)-quinolin-2-yl-methyl]-amine] the value was 5.31; for `COC(=O)Cn1nnnc1C(NCCCn1ccnc1)c1ccc(F)c(C#N)c1` (stereo not drawn) [compound 53, {5-[(3-Cyano-4-fluoro-phenyl)-(3-imidazol-1-yl-propylamino)-methyl]-tetrazol-1-yl}-acetic methyl ester], 5.40; for `CCCCn1nnnc1C(NCCCn1ccnc1)c1cc2ccccc2o1` (stereo not drawn) [compound 23], 5.03.
The same measure, in the same setting: for `CCCOc1cccc(C(Nc2ccc3[nH]cnc3c2)c2nnnn2Cc2cccnc2)c1` (stereo not drawn) [compound 74, (1H-Benzoimidazol-5-yl)-[(3-propoxy-phenyl)-(1-pyridin-3-ylmethyl-1H-tetrazol-5-yl)-methyl]-amine] the value was 5.66.
`COc1ccc(C(Nc2ccc3[nH]cnc3c2)c2nnnn2Cc2ccc(Cl)cc2)c(C)c1` (stereo not drawn) [compound 75, (1H-Benzoimidazol-5-yl)-[[1-(4-chloro-benzyl)-1H-tetrazol-5-yl]-(4-methoxy-2-methyl-phenyl)-methyl]-amine]: the pIC50 is 5.66.
Same read-out and setting: for `c1ccc2c(C(Nc3ccc4[nH]cnc4c3)c3nnnn3CC3CCCO3)csc2c1` (stereo not drawn) [compound 78] the value was 5.89.
On the same count and under the same terms, the result for `COC(=O)Cn1nnnc1C(NCCCn1ccnc1)c1ccc2[nH]ccc2c1` (stereo not drawn) [compound 54, {5-[(3-Imidazol-1-yl-propylamino)-(1H-indol-5-yl)-methyl]-tetrazol-1-yl}-acetic methyl ester] reads 5.24; that for `Cc1ccc(C(Nc2ccc3[nH]cnc3c2)c2nnnn2CC2CCCO2)cc1C` (stereo not drawn) [compound 83, (1H-Benzoimidazol-5-yl)-{(3,4-dimethyl-phenyl)-[1-(tetrahydro-furan-2-ylmethyl)-1H-tetrazol-5-yl]-methyl}-amine], 5.31.
Still for that read-out and setting: for `COC(=O)Cn1nnnc1C(NCCCn1ccnc1)c1cc(C)ccc1O` (stereo not drawn) [compound 51, {5-[(2-Hydroxy-5-methyl-phenyl)-(3-imidazol-1-yl-propylamino)-methyl]-tetrazol-1-yl}-acetic methyl ester] the value was 5.66; for `CC1=CCCC[C@@H]1C(NCCCn1ccnc1)c1nnnn1Cc1ccc(Cl)cc1` (stereo partly drawn) [compound 8, [[1-(4-Chloro-benzyl)-1H-tetrazol-5-yl]-((S)-2-methyl-cyclohex-2-enyl)-methyl]-(3-imidazol-1-yl-propyl)-amine], 5.40.
On to `c1ccc2nc(C(NCCCn3ccnc3)c3nnnn3C[C@@H]3CCCO3)ccc2c1` (stereo partly drawn) [compound 14, (3-Imidazol-1-yl-propyl)-(quinolin-2-yl-{1-[(S)-1-(tetrahydro-furan-2-yl)methyl]-1H-tetrazol-5-yl}-methyl)-amine], for which the negative logarithm of the IC50 (pIC50) is 5.66.
